Details: for surface tension liquid-gas: Drop volume; for viscosity / speed of sound / mass density / vapor or sublimation pressure: Liquid; for viscosity: Capillary tube (Ostwald / Ubbelohde) method; for speed of sound: Pulse-echo method; for vapor or sublimation pressure: Ebulliometric method (Recirculating still)

OCC1CCCO1 (stereo not given) [2-tetrahydrofurylmethanol]
Details	surface tension liquid-gas [mN/m]	vapor or sublimation pressure [kPa]
278.15 K	39.54	–
280.65 K	39.29	–
283.15 K	39.03	–
285.65 K	38.78	–
288.15 K	38.53	–
290.65 K	38.27	–
293.15 K	38.02	–
295.65 K	37.77	–
298.15 K	37.51	–
300.65 K	37.26	–
303.15 K	37.01	0.09
305.65 K	36.75	–
308.15 K	36.5	0.15
310.65 K	36.25	–
313.15 K	35.99	0.21
315.65 K	35.74	–
318.15 K	35.48	0.31
320.65 K	35.23	–
323.15 K	34.98	0.43
325.65 K	34.72	–
328.15 K	34.47	0.63
330.65 K	34.22	–
333.15 K	33.96	0.86
335.65 K	33.71	–
338.15 K	33.46	1.15
343.15 K	–	1.55
348.15 K	–	2.11
353.15 K	–	2.72
358.15 K	–	3.53
363.15 K	–	4.51
368.15 K	–	5.72
373.15 K	–	7.22
378.15 K	–	9.11
383.15 K	–	11.18
388.15 K	–	13.68
393.15 K	–	16.64
398.15 K	–	20.17
403.15 K	–	24.22
408.15 K	–	28.63
413.15 K	–	34.22
418.15 K	–	40.19
423.15 K	–	47.32
428.15 K	–	56.31
433.15 K	–	65.02
438.15 K	–	74.02
443.15 K	–	84.98
448.15 K	–	97.93

Details	mass density [kg/m3]	speed of sound [m/s]	viscosity [mPa·s]
278.15 K, 101.33 kPa	–	1556.4	10.39
280.65 K, 101.33 kPa	–	1547.6	9.487
283.15 K, 100 kPa	1062.84	–	–
283.15 K, 101.33 kPa	–	1538.6	8.684
283.15 K, 2500 kPa	1064.37	–	–
283.15 K, 5000 kPa	1065.68	–	–
283.15 K, 7500 kPa	1066.97	–	–
283.15 K, 10000 kPa	1068.24	–	–
283.15 K, 20000 kPa	1073.16	–	–
283.15 K, 30000 kPa	1077.84	–	–
283.15 K, 40000 kPa	1082.28	–	–
283.15 K, 50000 kPa	1086.55	–	–
283.15 K, 60000 kPa	1090.57	–	–
285.65 K, 101.33 kPa	–	1529.7	7.971
288.15 K, 100 kPa	1058.59	–	–
288.15 K, 101.33 kPa	–	1520.8	7.335
288.15 K, 2500 kPa	1060.15	–	–
288.15 K, 5000 kPa	1061.47	–	–
288.15 K, 7500 kPa	1062.8	–	–
288.15 K, 10000 kPa	1064.09	–	–
288.15 K, 20000 kPa	1069.11	–	–
288.15 K, 30000 kPa	1073.88	–	–
288.15 K, 40000 kPa	1078.41	–	–
288.15 K, 50000 kPa	1082.72	–	–
288.15 K, 60000 kPa	1086.83	–	–
290.65 K, 101.33 kPa	–	1511.8	6.765
293.15 K, 100 kPa	1054.34	–	–
293.15 K, 101.33 kPa	–	1503	6.254
293.15 K, 2500 kPa	1055.94	–	–
293.15 K, 5000 kPa	1057.3	–	–
293.15 K, 7500 kPa	1058.64	–	–
293.15 K, 10000 kPa	1060	–	–
293.15 K, 20000 kPa	1065.1	–	–
293.15 K, 30000 kPa	1069.97	–	–
293.15 K, 40000 kPa	1074.62	–	–
293.15 K, 50000 kPa	1078.97	–	–
293.15 K, 60000 kPa	1083.18	–	–
295.65 K, 101.33 kPa	–	1494.2	5.795
298.15 K, 100 kPa	1050.06	–	–
298.15 K, 101.33 kPa	–	1485.3	5.381
298.15 K, 2500 kPa	1051.72	–	–
298.15 K, 5000 kPa	1053.11	–	–
298.15 K, 7500 kPa	1054.48	–	–
298.15 K, 10000 kPa	1055.84	–	–
298.15 K, 20000 kPa	1061.08	–	–
298.15 K, 30000 kPa	1066.04	–	–
298.15 K, 40000 kPa	1070.75	–	–
298.15 K, 50000 kPa	1075.22	–	–
298.15 K, 60000 kPa	1079.49	–	–
300.65 K, 101.33 kPa	–	1476.5	5.006
303.15 K, 100 kPa	1045.78	–	–
303.15 K, 101.33 kPa	–	1467.8	4.667
303.15 K, 2500 kPa	1047.47	–	–
303.15 K, 5000 kPa	1048.9	–	–
303.15 K, 7500 kPa	1050.31	–	–
303.15 K, 10000 kPa	1051.69	–	–
303.15 K, 20000 kPa	1057.06	–	–
303.15 K, 30000 kPa	1062.11	–	–
303.15 K, 40000 kPa	1066.94	–	–
303.15 K, 50000 kPa	1071.49	–	–
303.15 K, 60000 kPa	1075.79	–	–
305.65 K, 101.33 kPa	–	1459	4.359
308.15 K, 100 kPa	1041.48	–	–
308.15 K, 101.33 kPa	–	1450.3	4.078
308.15 K, 2500 kPa	1043.19	–	–
308.15 K, 5000 kPa	1044.66	–	–
308.15 K, 7500 kPa	1046.09	–	–
308.15 K, 10000 kPa	1047.48	–	–
308.15 K, 20000 kPa	1052.96	–	–
308.15 K, 30000 kPa	1058.12	–	–
308.15 K, 40000 kPa	1063.05	–	–
308.15 K, 50000 kPa	1067.61	–	–
308.15 K, 60000 kPa	1072.09	–	–
310.65 K, 101.33 kPa	–	1441.6	3.822
313.15 K, 100 kPa	1037.17	–	–
313.15 K, 101.33 kPa	–	1432.8	3.588
313.15 K, 2500 kPa	1038.92	–	–
313.15 K, 5000 kPa	1040.41	–	–
313.15 K, 7500 kPa	1041.89	–	–
313.15 K, 10000 kPa	1043.41	–	–
313.15 K, 20000 kPa	1048.93	–	–
313.15 K, 30000 kPa	1054.21	–	–
313.15 K, 40000 kPa	1059.19	–	–
313.15 K, 50000 kPa	1063.91	–	–
313.15 K, 60000 kPa	1068.44	–	–
315.65 K, 101.33 kPa	–	1424.1	3.374
318.15 K, 100 kPa	1032.83	–	–
318.15 K, 101.33 kPa	–	1415.4	3.177
318.15 K, 2500 kPa	1034.57	–	–
318.15 K, 5000 kPa	1036.11	–	–
318.15 K, 7500 kPa	1037.62	–	–
318.15 K, 10000 kPa	1039.11	–	–
318.15 K, 20000 kPa	1044.81	–	–
318.15 K, 30000 kPa	1050.15	–	–
318.15 K, 40000 kPa	1055.24	–	–
318.15 K, 50000 kPa	1060.12	–	–
318.15 K, 60000 kPa	1064.68	–	–
320.65 K, 101.33 kPa	–	1406.8	2.996
323.15 K, 100 kPa	1028.47	–	–
323.15 K, 101.33 kPa	–	1398.1	2.83
323.15 K, 2500 kPa	1030.3	–	–
323.15 K, 5000 kPa	1031.87	–	–
323.15 K, 7500 kPa	1033.41	–	–
323.15 K, 10000 kPa	1034.93	–	–
323.15 K, 20000 kPa	1040.79	–	–
323.15 K, 30000 kPa	1046.28	–	–
323.15 K, 40000 kPa	1051.44	–	–
323.15 K, 50000 kPa	1056.41	–	–
323.15 K, 60000 kPa	1061.07	–	–
325.65 K, 101.33 kPa	–	1389.4	2.677
328.15 K, 100 kPa	1024.08	–	–
328.15 K, 101.33 kPa	–	1380.8	2.535
328.15 K, 2500 kPa	1025.88	–	–
328.15 K, 5000 kPa	1027.49	–	–
328.15 K, 7500 kPa	1029.13	–	–
328.15 K, 10000 kPa	1030.63	–	–
328.15 K, 20000 kPa	1036.6	–	–
328.15 K, 30000 kPa	1042.2	–	–
328.15 K, 40000 kPa	1047.5	–	–
328.15 K, 50000 kPa	1052.52	–	–
328.15 K, 60000 kPa	1057.3	–	–
330.65 K, 101.33 kPa	–	1372.1	2.404
333.15 K, 100 kPa	1019.68	–	–
333.15 K, 101.33 kPa	–	1363.5	2.282
333.15 K, 2500 kPa	1021.52	–	–
333.15 K, 5000 kPa	1023.18	–	–
333.15 K, 7500 kPa	1024.84	–	–
333.15 K, 10000 kPa	1026.39	–	–
333.15 K, 20000 kPa	1032.49	–	–
333.15 K, 30000 kPa	1038.22	–	–
333.15 K, 40000 kPa	1043.64	–	–
333.15 K, 50000 kPa	1048.73	–	–
333.15 K, 60000 kPa	1053.6	–	–
335.65 K, 101.33 kPa	–	1354.8	2.169
338.15 K, 100 kPa	1015.24	–	–
338.15 K, 101.33 kPa	–	1346.2	2.064
338.15 K, 2500 kPa	1017.04	–	–
338.15 K, 5000 kPa	1018.75	–	–
338.15 K, 7500 kPa	1020.45	–	–
338.15 K, 10000 kPa	1022.06	–	–
338.15 K, 20000 kPa	1028.31	–	–
338.15 K, 30000 kPa	1034.16	–	–
338.15 K, 40000 kPa	1039.68	–	–
338.15 K, 50000 kPa	1044.89	–	–
338.15 K, 60000 kPa	1049.83	–	–

101.33 kPa, Vibrating tube method
Details	mass density [kg/m3]
278.15 K	1067.07
280.65 K	1064.96
283.15 K	1062.84
285.65 K	1060.72
288.15 K	1058.59
290.65 K	1056.47
293.15 K	1054.34
295.65 K	1052.2
298.15 K	1050.06
300.65 K	1047.92
303.15 K	1045.78
305.65 K	1043.63
308.15 K	1041.48
310.65 K	1039.33
313.15 K	1037.17
315.65 K	1035
318.15 K	1032.83
320.65 K	1030.65
323.15 K	1028.47
325.65 K	1026.28
328.15 K	1024.08
330.65 K	1021.88
333.15 K	1019.68
335.65 K	1017.46
338.15 K	1015.24

From the NIST ThermoML archive (doi:10.1021/je400783h)
